Laboratory results taken from patent US20140179664A1, “Heterocyclyl Pyrimidine Analogues As JAK Inhibitors” (Cellzome Limited, priority 2011, published 2014).

Target: T1, JAK3 (Homo sapiens, UniProt P52333)
T1 construct: endogenous in cells; host or cells: Molt4 (ATCC CRL-1582) and Ramos (ATCC CRL-1596), mixed lysate 1:2
T1 sequence (P52333 1-1124): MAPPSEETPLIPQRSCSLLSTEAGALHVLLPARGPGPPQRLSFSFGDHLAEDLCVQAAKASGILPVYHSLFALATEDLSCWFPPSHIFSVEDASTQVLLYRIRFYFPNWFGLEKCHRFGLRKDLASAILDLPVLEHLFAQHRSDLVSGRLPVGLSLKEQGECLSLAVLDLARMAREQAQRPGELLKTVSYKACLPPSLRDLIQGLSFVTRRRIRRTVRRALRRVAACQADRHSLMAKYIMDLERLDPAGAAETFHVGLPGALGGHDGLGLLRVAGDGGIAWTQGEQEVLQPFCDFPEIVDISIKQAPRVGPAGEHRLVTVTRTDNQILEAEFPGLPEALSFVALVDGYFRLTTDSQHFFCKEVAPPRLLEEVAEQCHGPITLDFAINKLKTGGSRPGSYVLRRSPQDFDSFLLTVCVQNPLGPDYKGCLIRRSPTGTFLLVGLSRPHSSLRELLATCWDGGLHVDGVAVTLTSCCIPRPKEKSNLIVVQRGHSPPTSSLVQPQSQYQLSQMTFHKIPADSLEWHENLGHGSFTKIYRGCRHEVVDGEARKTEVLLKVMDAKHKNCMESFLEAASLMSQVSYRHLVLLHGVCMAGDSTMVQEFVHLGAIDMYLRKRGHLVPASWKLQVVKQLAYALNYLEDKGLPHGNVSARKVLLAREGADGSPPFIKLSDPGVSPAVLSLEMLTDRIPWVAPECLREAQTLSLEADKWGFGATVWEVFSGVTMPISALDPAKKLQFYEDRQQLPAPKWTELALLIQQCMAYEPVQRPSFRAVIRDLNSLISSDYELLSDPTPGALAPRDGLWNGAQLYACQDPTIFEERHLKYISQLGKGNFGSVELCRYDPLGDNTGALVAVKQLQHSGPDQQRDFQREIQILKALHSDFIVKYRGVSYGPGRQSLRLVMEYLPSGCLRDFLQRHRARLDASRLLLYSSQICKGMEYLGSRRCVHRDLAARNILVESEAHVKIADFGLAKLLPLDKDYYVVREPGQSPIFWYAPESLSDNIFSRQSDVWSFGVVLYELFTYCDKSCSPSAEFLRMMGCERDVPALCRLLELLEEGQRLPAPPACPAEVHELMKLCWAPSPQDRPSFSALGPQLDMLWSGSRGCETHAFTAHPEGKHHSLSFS
Assay: Kinobeads assay, JAK3
Assay type: binding
Conditions: mixed Molt4/Ramos lysate, read-out: Inhibition values (IC50) JAK3
Description: The compounds of the present invention as described in the previous examples were tested in a Kinobeads™ assay as described for ZAP-70 (WO-A 2007/137867). Briefly, test compounds (at various concentrations) and the affinity matrix with the immobilized aminopyrido-pyrimidine ligand 24 were added to cell lysate aliquots and allowed to bind to the proteins in the lysate sample. After the incubation time the beads with captured proteins were separated from the lysate. Bound proteins were then eluted and the presence of JAK1, JAK2, JAK3 and TYK2 was detected and quantified using specific antibodies in a dot blot procedure and the Odyssey infrared detection system. Dose response curves for individual kinases were generated and IC50 values calculated. Kinobeads™ assays for ZAP-70 (WO-A 2007/137867) and for kinase selectivity profiling (WO-A 2006/134056) have been previously described.
The affinity matrix was washed two times with 15 mL of lx DP buffer containing 0.2% NP40 (IGEPAL® CA-630, Sigma, #13021) and then resuspended in 1×DP buffer containing 0.2% NP40 (3% beads slurry).
5×DP buffer: 250 mM Tris-HCl pH 7.4, 25% Glycerol, 7.5 mM MgCl2, 750 mM NaCl, 5 mM Na3VO4; filter the 5×DP buffer through a 0.22 μm filter and store in aliquots at −80° C. The 5×DP buffer is diluted with H2O to 1×DP buffer containing 1 mM DTT and 25 mM NaF.
Stock solutions of test compounds were prepared in DMSO. In a 96 well plate […] solution of diluted test compounds at 5 mM in DMSO were prepared. Starting with this solution a 1:3 dilution series (9 steps) was prepared. For control experiments (no test compound) a buffer containing 2% DMSO was used.
Molt4 cells (ATCC catalogue number CRL-1582) and Ramos cells (ATCC catalogue number CRL-1596) were grown in 1 L Spinner flasks (Integra Biosciences, #182101) in suspension in RPMI 1640 medium (Invitrogen, #21875-034) supplemented with 10% Fetal Bovine Serum (Invitrogen) at a density between 0.15×10^6 and 1.2×10^6 cells/mL. Cells were harvested by centrifugation, washed once with 1×PBS buffer (Invitrogen, #14190-094) and cell pellets were frozen in liquid nitrogen and subsequently stored at −80° C. Cells were homogenized in a Potter S homogenizer in lysis buffer: 50 mM Tris-HCl, 0.8% NP40, 5% glycerol, 150 mM NaCl, 1.5 mM MgCl2, 25 mM NaF, 1 mM sodium vanadate, 1 mM DTT, pH 7.5. One complete EDTA-free tablet (protease inhibitor cocktail, Roche Diagnostics, 1873580) per 25 mL buffer was added. The material was dounced 10 times using a mechanized POTTER S, transferred to 50 mL falcon tubes, incubated for 30 minutes on ice and spun down for 10 minutes at 20,000 g at 4° C. (10,000 rpm in Sorvall SLA600, precooled). The supernatant was transferred to an ultracentrifuge (UZ)-polycarbonate tube (Beckmann, 355654) and spun for 1 hour at 100.000 g at 4° C. (33.500 rpm in Ti50.2, precooled). The supernatant was transferred again to a fresh 50 mL falcon tube, the protein concentration was determined by a Bradford assay (BioRad) and samples containing 50 mg of protein per aliquot were prepared. The samples were immediately used for experiments or frozen in liquid nitrogen and stored frozen at −80° C.
Cell lysate (approximately 50 mg protein per plate) was thawed in a water bath at room temperature and then stored on ice. To the thawed cell lysate 1×DP 0.8% NP40 buffer containing protease inhibitors (1 tablet for 25 mL buffer; EDTA-free protease inhibitor cocktail; Roche Diagnostics 1873580) was added in order to reach a final protein concentration of 10 mg/mL total protein. The diluted cell lysate was stored on ice. Mixed Molt4/Ramos lysate was prepared by combining one volume of Molt4 lysate and two volumes of Ramos lysate (ratio 1:2).
To a 96 well filter plate (Multiscreen HTS, BV Filter Plates, Millipore #MSBVN1250) were added per well: 100 μL affinity matrix (3% beads slurry), […], of compound solution, and 50 μL of diluted lysate. […]

Compound | IC50 [nM]
OCCn1cc(Nc2ncc(F)c(N[C@H](CO)c3ccccc3)n2)cn1 [Compound 10] | < 100
Cn1cc(Nc2ncc(Cl)c(NC(CO)c3cc(F)cc(F)c3)n2)cn1 (centres unmarked) [Compound 121] | < 100
CNC(=O)Cn1cc(Nc2ncc(Cl)c(N[C@H](CO)c3cc(F)cc(-c4cnn(C)c4)c3)n2)cn1 [Compound 156] | < 100
Cc1cnc(Nc2cnn(CC(F)F)c2)nc1N[C@H](CO)c1cc(F)ccc1F [Compound 166] | 100 to 1000
CNC(=O)Cn1cc(Nc2ncc(Cl)c(N[C@H](CO)c3ccccc3OC)n2)cn1 [Compound 98] | < 100
O=C(Cn1cc(Nc2ncc(Cl)c(N[C@H](CO)c3ccccc3F)n2)cn1)N1CCOCC1 [Compound 103] | < 100
Cn1cc(Nc2ncc(Cl)c(NC(C)(CO)c3ccccc3)n2)cn1 (centres unmarked) [Compound 7] | 100 to 1000
Cn1cc(-c2cccc([C@@H](CO)Nc3nc(Nc4cnn(CCO)c4)ncc3Cl)c2)cn1 [Compound 151] | 100 to 1000
Cn1cc(Nc2ncc(Cl)c(N[C@H](CO)c3cc(F)ccc3F)n2)cn1 [Compound 139] | < 100
Cn1cc(Nc2ncc(Cl)c(NC(CO)c3cc(F)ccc3F)n2)cn1 (centres unmarked) [Compound 129] | < 100
CC(C)n1cc(Nc2ncc(Cl)c(N[C@H](CO)c3cccnc3)n2)cn1 [Compound 107] | < 100
Cn1cc(Nc2ncc(F)c(N[C@H](CO)c3cc(F)cc(-c4cnn(C)c4)c3)n2)cn1 [Compound 150] | 100 to 1000
CC[C@@H](Nc1nc(Nc2cnn(C)c2)ncc1Cl)c1ccccc1 [Compound 5] | 100 to 1000
OCCn1cc(Nc2ncc(Cl)c(N[C@H](CO)c3ccccc3)n2)cn1 [Compound 9] | < 100
O=C(Cn1cc(Nc2ncc(F)c(N[C@H](CO)c3ccccc3)n2)cn1)N1CCOCC1 [Compound 112] | < 100
Cn1cc(Nc2ncc(Cl)c(N[C@H](CO)c3cccc(-c4cnn(C)c4)c3)n2)cn1 [Compound 136] | 100 to 1000
CCn1cc(Nc2ncc(Cl)c(N[C@H](CO)c3cccnc3)n2)cn1 [Compound 97] | < 100
CNC(=O)Cn1cc(Nc2ncc(C)c(N[C@H](CO)c3ccccc3)n2)cn1 [Compound 133] | < 100

Compound | IC50 [nM]
CN1CCC(n2cc(Nc3ncc(Cl)c(N[C@H](CO)c4ccccc4)n3)cn2)C1=O (some centres unmarked) [Compound 135] | < 100
O=C(Cn1cc(Nc2ncc(Cl)c(N[C@H](CO)c3cccnc3)n2)cn1)N1CCOCC1 [Compound 104] | < 100
CC(C)NC(=O)Cn1cc(Nc2ncc(Cl)c(N[C@H](CO)c3ccccc3F)n2)cn1 [Compound 115] | < 100
CN(C)C(=O)C(Nc1nc(Nc2cnn(CCO)c2)ncc1Cl)c1ccccc1F (centres unmarked) [Compound 127] | 100 to 1000
CCC(Nc1nc(Nc2cnn(C)c2)ncc1Cl)c1ccccc1F (centres unmarked) [Compound 125] | 100 to 1000
NC(=O)Cn1cc(Nc2ncc(Cl)c(NC(CO)c3ccccc3Cl)n2)cn1 (centres unmarked) [Compound 118] | < 100
CCn1cc(Nc2ncc(Cl)c(N[C@H](CO)c3cccc(OC)c3)n2)cn1 [Compound 96] | < 100
CNC(=O)Cn1cc(Nc2ncc(Cl)c(N[C@H](CO)c3cccc(-c4cnn(C)c4)c3)n2)cn1 [Compound 154] | < 100
Cn1cc(Nc2ncc(Cl)c(N[C@H](CO)c3ccccc3)n2)cn1 [Compound 4] | < 100
CNC(=O)Cn1cc(Nc2ncc(Cl)c(NC(CO)c3ccccc3C(F)(F)F)n2)cn1 (centres unmarked) [Compound 131] | 100 to 1000
CNC(=O)Cn1cc(Nc2ncc(F)c(N[C@H](CO)c3cc(F)ccc3F)n2)cn1 [Compound 148] | < 100
Cn1cc(-c2cccc(C(CO)Nc3nc(Nc4cnn(CCO)c4)ncc3Cl)c2)cn1 (centres unmarked) [Compound 94] | 100 to 1000
CCC(Nc1nc(Nc2cnn(CC(N)=O)c2)ncc1Cl)c1ccccc1F (centres unmarked) [Compound 126] | 100 to 1000
Cn1cc(-c2cc(F)cc([C@@H](CO)Nc3nc(Nc4cnn(CCO)c4)ncc3Cl)c2)cn1 [Compound 152] | < 100
CNC(=O)Cn1cc(Nc2ncc(F)c(N[C@H](CO)c3ccccc3)n2)cn1 [Compound 111] | < 100
Cn1cc(Nc2ncc(C(F)(F)F)c(N[C@H](CO)c3ccccc3)n2)cn1 [Compound 6] | < 100
OCCn1cc(Nc2ncc(F)c(N[C@H](CO)c3cc(F)ccc3F)n2)cn1 [Compound 147] | < 100
